# Assay results published in PubChem BioAssay AID602251 (NMMLSC, 2012).
# Active and inactive are the calls of the source.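 How the source made its calls: active means fitted concentration giving half of the maximal binding block below 66 µM; inactive means the rest.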
# Biological target: anti-desmoglein 3 scFv antibody binding to human desmoglein 3 (DSG3)
# Assay: inhibitors of anti-DSG3 scFv binding to DSG3, dose response, biochemical, DSG3-coupled beads, scFv-GFP, flow cytometry, Cherry Pick 1 (AID 602251);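 on binding response, lower = inhibition: 100% = DMSO vehicle binding and 0% = soluble DSG3 blocking control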
# Conditions: not given
row,Structure (SMILES),EC50 [µM]
1,O=C(O)C1Nc2c(O)cc(Cl)c([N+](=O)[O-])c2C2C=CCC12 (stereo not drawn),27.7
2,CCN(CC)c1ccc(NC(=O)CCCCC(=O)Nc2ccc(N(CC)CC)cc2)cc1,27.2

# Further lines, results first:
row,EC50 [µM],Structure (SMILES)
1,1.08,CCOc1ccc2c(ccc(/C=C/c3cc(C)c4cccnc4c3O)[n+]2C)c1
2,39.1,Nc1ccc2nc3c(=O)[nH]c(=S)[nH]c3nc2c1
3,15,CCOC(=O)Cc1csc(-n2sc3ccccc3c2=O)n1

# Same assay, conditions: at 66.1 µM (top of the series)
row,Structure (SMILES),"binding response, lower = inhibition"
1,CS(=O)(=O)c1ccc2nc(NC(=O)Nc3ccccc3F)sc2c1,inactive
2,COc1ccc(Cl)c(NC(=O)NCCN2CCN(c3ccccc3)CC2)c1,inactive
3,COc1ccc(C(=O)Nc2ccc(NC(=O)c3cnccn3)cn2)cc1,inactive
4,CC(=O)c1c(C)n(-c2ccc(Cl)cc2)c2ccc(O)cc12,inactive
5,O=C(COC(=O)c1ccc(S(=O)(=O)N2CCCC2)cc1)NCc1ccc(Cl)cc1,inactive
6,COc1cc(OC)cc(N(C(=O)C2COc3ccccc3O2)C(C(=O)NC2CCCCC2)c2ccc(O)cc2)c1 (stereo not drawn),inactive
7,O=C1OC(COc2ccc(Br)cc2)CN1c1ccccc1 (stereo not drawn),inactive
8,CCOc1ccccc1NCc1cc(=O)oc2cc(C)c(O)cc12,inactive
9,COc1ccccc1NS(=O)(=O)c1cccc(NC(=O)c2cc3ccccc3oc2=O)c1,inactive
10,COc1ccc(CCNC(=O)COc2ccc(-c3ccc(C)cc3)cc2)cc1OC,inactive
11,NS(=O)(=O)c1ccc(-c2ccc(/C=C3\SC(=S)N(C4CCS(=O)(=O)C4)C3=O)o2)cc1 (stereo not drawn),inactive

# Further lines, results first:
row,"binding response, lower = inhibition",Structure (SMILES)
1,inactive,Cc1ccc2nc(NC(=O)c3ccc4ncsc4c3)sc2c1
2,inactive,CCOc1ccc(NC(=O)c2ccc(NC(=O)CSc3nc4ccccc4c(=O)[nH]3)cc2)cc1
3,inactive,CSc1ccccc1OCc1cc(C(=O)NCCC2=CCCCC2)no1
4,inactive,Cc1ccc(CSc2nnc(Nc3ccc(C)cc3)s2)cc1
5,inactive,Cc1ccsc1-c1nc(-c2ccccc2)c(-c2ccccc2)[nH]1
6,inactive,C=CCSc1nc(N)c(C(=O)Nc2ccccc2)cc1C#N
7,inactive,COC(=O)c1sc(NC(=O)c2cc(-c3ccccc3)nc3ccccc23)c(C#N)c1C
8,inactive,COc1ccc(C(C(=O)NC2CCCCC2)N(CC2CCCO2)C(=O)C2COc3ccccc3O2)cc1OC (stereo not drawn)
9,inactive,OCc1cn(-c2ccccc2)nc1-c1ccc(-c2nn(-c3ccccc3)cc2CO)cc1
10,inactive,C#CCn1c(=NC(=O)c2sc3ccccc3c2Cl)sc2cc(S(N)(=O)=O)ccc21
11,inactive,O=C(Nc1ccc(N2CCN(C(=O)c3ccccc3)CC2)cc1)c1cc2ccccc2o1
12,inactive,CCC(=O)N1CCc2cc(S(=O)(=O)N(C)c3ccc(Br)cc3)ccc21
